# According to article PMC11278233, “The Composition of Triterpene Glycosides in the Sea Cucumber Psolus peronii: Anticancer Activity of the Glycosides against Three Human Breast Cancer Cell Lines and Quantitative Structure–Activity Relationships (QSAR)” (Marine Drugs, 2024):
# Read-outs that look alike come from different tables or passages of the source.
# Assays:
# [1] = tested on: human breast cancer cell line T-47D; test: cells; type: cell-based; details: for Selectivity Index T-47D: ratio of IC50 for healthy (MCF-10A) and cancer cells
# MCF-7 cells [2] = test: Colonogenic (colony formation) assay, MCF-7; type: cell-based; details: Homo sapiens, MCF7, 336 h, 14 days
# Procedure: (§1) The cancer cells (MDA-MB-231, MCF-7 and T-47D lines) were cultured on 6-well plates at a density of 1 × 10^3 per well in control media (MEM media, 10% FBS, 10,000 U/mL of penicillin and […] of streptomycin) or in media supplemented with different concentrations of the glycosides. The cells were incubated for 14 days at 37 °C in a 5% CO2 humidified incubator. Then, the colonies were fixed with methanol (25 min), stained with a 0.5% solution of crystal violet (25 min), washed with H2O and dried in air. Counting of the grown colonies was carried out using a BIO-PRINT-Cx4 Edge-Fixed Pad-Container (Vilber, Collegien, France) device and using the software Bio-Vision SOFTWARE User and service manual-v18.01 (Vilber, Collegien, France). The results are presented as % of colony inhibition in relation to the control.
# MCF-7 cells [3] = test: Wound healing (scratch) assay, MCF-7; type: cell-based, human; details: 1 and 2 μM, within 48 h, control migrated by 84.60 ± 2.12%
# Procedure: (§2) To analyze the influence of the tested compounds on tumor cell migration, MCF-7 and MDA-MB-231 (5 × 10^5) cells attached to the plate’s plastic bottom were separated using a silicone insert from special migration plates (Culture-insert 2Well 24, ibiTreat). When the insert was removed, a gap of […] (according to the manufacturer’s data) between the cells was left. After 24 h, the cells were washed twice with PBS to remove cell debris and floating cells, treated with 1 and 2 μM of psolusosides A (2) and L (6) and placed in the real-time live cell imaging system Juli Stage (NanoEntek, Seoul, South Korea). Cells treated with the culture medium only were used as the control. The cell migration was analyzed in real time (15 min for each cycle). For the MDA-MB-231 cells, observations were carried out for 12 h (until complete healing of the wound area in the control); for MCF-7 cells, this time was 48 h. The results were processed using the program Juli^TM Stat (NanoEntek, South Korea).
# MDA-MB-231 cells [4] = test: Wound healing (scratch) assay, MDA-MB-231; type: cell-based, human; details: 2 μM, within 12 h, control 99.83 ± 0.08%
# Procedure: as §2
# in vitro = type: cell-based, human; details: human
# [5] = tested on: non-transformed epithelial cells of the mammary gland MCF-10A; test: in vitro; type: cell-based, human
# human erythrocytes = test: Hemolytic activity; type: cell-based; details: Erythrocyte, 1 h at 37 °C, lysis of 50% of erythrocytes
# Procedure: A total of 450 g of human blood (B(III) Rh+) was used to obtain erythrocytes by centrifuging it three times for 5 min with phosphate-buffered saline (PBS) (pH 7.4) at 4 °C on the centrifuge LABOFUGE 400R (Heraeus, Hanau, Germany). Ice-cold PBS (pH 7.4) was used for resuspension of the erythrocyte residue to a final optical density of 1.5 at 700 nm, which was kept on ice. Then, 20 µL of the tested compound solutions was added to 180 µL of the erythrocyte suspension in V-bottom 96-well plates and exposed for 1 h at 37 °C. The layers were separated by centrifugation at 900 g for 10 min on the laboratory centrifuge LMC-3000 (Biosan, Riga, Latvia). A total of 100 µL of the supernatant was carefully decanted and transferred into a new flat plate. The values of erythrocyte lysis were measured on a microplate photometer Multiskan FC (Thermo Fisher Scientific, Waltham, MA, USA) at λ = 570 nm as the hemoglobin concentration in the supernatant. […] All the experiments were carried out in triple repetitions; p ≤ 0.05.
# MDA-MB-231 cells [6] = test: Colonogenic (colony formation) assay, MDA-MB-231; type: cell-based; details: Homo sapiens, 336 h, 2 μM, 14 days, read-out: inhibition of the growth of colonies
# Procedure: as §1
# [7] = tested on: human breast cancer cell line MCF-7; test: cells; type: cell-based; details: for Selectivity Index MCF-7: ratio of IC50 for healthy (MCF-10A) and cancer cells
# T-47D cells = test: Colonogenic (colony formation) assay, T-47D; type: cell-based, human; details: 1 μM, 14 days
# Procedure: as §1
# [8] = tested on: triple-negative human breast cancer cell line MDA-MB-231; test: cells; type: cell-based; details: for IC50: Homo sapiens; for Selectivity Index MDA-MB-231: ratio of IC50 for healthy (MCF-10A) and cancer cells
compound,measurement,setting,value
"C=C(C)CCC[C@]1(C)OC(=O)[C@]23CC=C4[C@@H](CC[C@H]5C(C)(C)[C@@H](O[C@@H]6OC[C@@H](O[C@@H]7O[C@H](COS(=O)(=O)[O-])[C@@H](O)[C@H](O)[C@H]7O)[C@H](O)[C@H]6O[C@@H]6O[C@H](C)[C@@H](O[C@@H]7O[C@H](COS(=O)(=O)[O-])[C@@H](O)[C@H](O[C@@H]8O[C@H](COS(=O)(=O)[O-])[C@@H](O)[C@H](OC)[C@H]8O)[C@H]7O)[C@H](O)[C@H]6O)CC[C@]45C)[C@]2(C)CC(=O)[C@@H]31.[Na+].[Na+].[Na+] [psolusoside L (6), psolusoside L]",IC50,"[1]; Homo sapiens, T47D, 24 h, read-out: Cytotoxicity, IC50 µM T-47D",5.45 ± 0.04 µM
same,Selectivity Index T-47D,[1]; 24 h of exposition,6.07
same,Selectivity Index T-47D,[1]; 48 h of exposition,1.25
same,Selectivity Index T-47D,[1]; 72 h of exposition,0.91
same,inhibition at 1 µM,MCF-7 cells [2]; 1 μM,19.6 ± 0.24%
same,inhibition at 2 µM,MCF-7 cells [2]; 2 μM,89.67 ± 0.28%
same,inhibition at 5 µM,MCF-7 cells [2]; 5 μM,97.83 ± 0.25%
same,reduction of the migration of cells to the scratch area,MCF-7 cells [3],33–42%
same,overgrowth of the wound area (migration),MDA-MB-231 cells [4],6.03 ± 0.02%
same,IC50 at 24 h,in vitro,33.08 ± 0.29 µM
same,cytotoxicity to non-transformed MCF-10A cells (result in words),[5],slightly cytotoxic
same,IC50,human erythrocytes,1.83 ± 0.14 µM
same,inhibition at 2 µM,MDA-MB-231 cells [6],90.4 ± 0.92%
same,IC50,"[7]; Homo sapiens, MCF7, 24 h, read-out: Cytotoxicity, IC50 µM MCF-7",13.7 ± 0.31 µM
same,Selectivity Index MCF-7,[7]; 24 h of exposition,2.41
same,Selectivity Index MCF-7,[7]; 48 h of exposition,1.33
same,Selectivity Index MCF-7,[7]; 72 h of exposition,0.66
same,growth of colonies (result in words),T-47D cells,completely blocked
same,IC50,"[8]; MDA-MB-231, 24 h, read-out: Cytotoxicity, IC50 µM MDA-MD-231",6.39 ± 0.3 µM
same,IC50,"[8]; MDA-MB-231, MTT assay, 48 h incubation, read-out: IC50 against MDA-MB-231 cells (antiproliferative effect)",1.67 ± 0.16 µM
same,IC50,"[8]; MDA-MB-231, MTT assay, 72 h incubation, read-out: IC50 against MDA-MB-231 cells (antiproliferative effect)",1.24 ± 0.02 µM
same,Selectivity Index MDA-MB-231,[8]; 24 h of exposition,5.18
same,Selectivity Index MDA-MB-231,[8]; 48 h of exposition,5.83
same,Selectivity Index MDA-MB-231,[8]; 72 h of exposition,4.56
